Results reported in PubChem BioAssay (NCI).
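Growth conditions: 96-well plates. Treatment: test compound, 48 hours, 5 concentrations. Analysis: linear interpolation between bracketing concentrations; unreached endpoints set to highest concentration. GI50 is the concentration that inhibits growth by half. The concentration for full growth arrest is given as TGI.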 Where a SMILES comes first, the peptide text is derived from it. The star is where a group is joined. Cbz = O=C(OCc1ccccc1)*; CH2Cl = ClC*

system: DLD-1 colon; assay: NCI tumour cell line growth inhibition, 48 h

Going from `O=C(Nc1nc(=S)c2c(ncn2CCOC(=O)c2ccccc2)[nH]1)c1ccccc1` to `O=C(/C=C/c1cccc2ccccc12)c1ccccc1Cl`, the TGI falls from greater than 100 µM to 24 µM.

`COc1ccc(CC2NCCc3c2[nH]c2ccccc32)cc1` (stereo not drawn) and `CCOc1ccc(NC(=O)CC#N)cc1` cannot be ordered by TGI: greater than 100 µM for the first, greater than 100 µM for the second.

`Cc1ccc(/C=C/C(=O)c2sc(-c3nc(C)c(C(=O)/C=C/c4ccc(C)cc4)s3)nc2C)cc1` and `O=C1/C(=C/c2ccc(Cl)cc2)CCC1CCN1CCOCC1` (stereo not drawn) cannot be ordered by TGI: greater than 100 µM for the first, greater than 100 µM for the second.

Compared with `CCC[CH2][Sn]([Cl])([CH2]CCC)[CH2]CCC`, `O=c1ccn([C@H]2CSC[C@@H](CO)C2)c(=O)[nH]1` is higher in TGI: 1.02 µM for the first, greater than 100 µM for the second.

`C1CN2CCN3CCN4CCN1[P+]243` was tested, and the TGI was greater than 100 µM.

`CCC[CH2][Sn]([Cl])([CH2]CCC)[CH2]CCC` gave a GI50 of 0.0853 µM.

system: LXFL 529 NSCLC; assay: NCI tumour cell line growth inhibition, 48 h

`COc1ccc(NC(=O)/C(Cc2cc(=O)oc3cc(O)ccc23)=N\NC(C)(C)C)c(OC)c1` and `Cc1cc(Cl)ccc1NC(=O)C(=O)Cc1nc2ccccc2o1` cannot be ordered by TGI: greater than 100 µM for the first, greater than 100 µM for the second.

`O=C1/C(=C/c2ccc3c(c2)OCO3)SC2C=Nc3ccccc3N12` (stereo not drawn) and `Cc1[nH]c2ccccc2c1C(=O)/C=C/c1ccccc1O` cannot be ordered by TGI: greater than 100 µM for the first, greater than 100 µM for the second.

`CCOc1ccc(NC(=O)C(=O)CC(=O)c2c(C)n([O-])c3ccccc3[n+]2=O)cc1` and `CCOc1ccc(NC(=O)CC#N)cc1` cannot be ordered by TGI: greater than 100 µM for the first, greater than 100 µM for the second.

First: CC(=O)OC12C=CC(=O)N1c1ccccc1C(=O)O2 (stereo not drawn)
Second: O=C(/C=C/c1cccc2ccccc12)c1ccccc1Cl
The TGI of the first is higher: greater than 100 µM for the first, 26.8 µM for the second.

`OCC1OC(c2nc(C3=NCCCN3)cs2)C(O)C1O` (stereo not drawn) and `O=c1ccn([C@H]2CSC[C@@H](CO)C2)c(=O)[nH]1` cannot be ordered by TGI: greater than 100 µM for the first, greater than 100 µM for the second.

`CCC(C)COC(=O)c1ccc(N=Cc2ccc(C=Nc3ccc(C(=O)OCC(C)CC)cc3)cc2)cc1` (stereo not drawn) and `Cc1cc(N(CCC#N)CCC#N)ccc1N=Nc1ccc(C(=O)O)cc1` cannot be ordered by TGI: greater than 100 µM for the first, greater than 100 µM for the second.

`CN(C)CC1CCCC/C1=N/OC(=O)c1ccc(Cl)cc1` (stereo not drawn) and `O=C1/C(=C/c2ccc(Cl)cc2)CCC1CCN1CCOCC1` (stereo not drawn) cannot be ordered by TGI: greater than 100 µM for the first, greater than 100 µM for the second.

`COc1cccc(C2=NC(C(C)C)CO2)c1` (stereo not drawn) and `COc1ccc(CC2NCCc3c2[nH]c2ccccc32)cc1` (stereo not drawn) cannot be ordered by TGI: greater than 100 µM for the first, greater than 100 µM for the second.

`CCCc1nc(NC#N)nc(C(=O)Nc2ccccc2)c1CC` and `O=C(Nc1nc(=S)c2c(ncn2CCOC(=O)c2ccccc2)[nH]1)c1ccccc1` cannot be ordered by TGI: greater than 100 µM for the first, greater than 100 µM for the second.

`O=C(CCc1n[nH]c(=S)o1)Nc1ccccc1C(F)(F)F` and `Cc1ccc(NC(=O)CCc2cc(C(C)(C)C)nc(=S)[nH]2)cc1C` cannot be ordered by TGI: greater than 100 µM for the first, greater than 100 µM for the second.

First: CCC[CH2][Sn]([Cl])([CH2]CCC)[CH2]CCC
Second: C1CN2CCN3CCN4CCN1[P+]243
The TGI of the first is lower: 0.202 µM for the first, greater than 100 µM for the second.

In the case of `CCC[CH2][Sn]([Cl])([CH2]CCC)[CH2]CCC`, the GI50 is reported as 0.0645 µM.

system: M19-MEL melanoma; assay: NCI tumour cell line growth inhibition, 48 h

Going from `COc1cc(NCc2ccc3nc(N)nc(N)c3c2C)cc(OC)c1OC` (tested in a mixture with another compound) to `COc1cc2c(c(OC)c1OC)-c1ccc(SC)c(=O)cc1C(NC=O)CC2` (stereo not drawn), the TGI rises from 52.5 µM to greater than 100 µM.

`COc1ccc(NC(=O)/C(Cc2cc(=O)oc3cc(O)ccc23)=N\NC(C)(C)C)c(OC)c1` and `Cc1cc(Cl)ccc1NC(=O)C(=O)Cc1nc2ccccc2o1` cannot be ordered by TGI: greater than 100 µM for the first, greater than 100 µM for the second.

`O=C1/C(=C/c2ccc3c(c2)OCO3)SC2C=Nc3ccccc3N12` (stereo not drawn) and `Cc1[nH]c2ccccc2c1C(=O)/C=C/c1ccccc1O` cannot be ordered by TGI: greater than 100 µM for the first, greater than 100 µM for the second.

`CCOc1ccc(NC(=O)C(=O)CC(=O)c2c(C)n([O-])c3ccccc3[n+]2=O)cc1` and `CCOc1ccc(NC(=O)CC#N)cc1` cannot be ordered by TGI: greater than 100 µM for the first, greater than 100 µM for the second.

`CC(=O)OC12C=CC(=O)N1c1ccccc1C(=O)O2` (stereo not drawn) and `O=C(CCc1n[nH]c(=S)o1)Nc1ccccc1C(F)(F)F` cannot be ordered by TGI: greater than 100 µM for the first, greater than 100 µM for the second.

`OCC1OC(c2nc(C3=NCCCN3)cs2)C(O)C1O` (stereo not drawn) and `O=c1ccn([C@H]2CSC[C@@H](CO)C2)c(=O)[nH]1` cannot be ordered by TGI: greater than 100 µM for the first, greater than 100 µM for the second.

Compared with `Cc1cc(N(CCC#N)CCC#N)ccc1N=Nc1ccc(C(=O)O)cc1`, `N#CC(C(=O)C(=O)C(C#N)c1ccc(Br)cc1)c1ccc(Br)cc1` (stereo not drawn) is lower in TGI: greater than 100 µM for the first, 25.8 µM for the second.

`CN(C)CC1CCCC/C1=N/OC(=O)c1ccc(Cl)cc1` (stereo not drawn) and `O=C1/C(=C/c2ccc(Cl)cc2)CCC1CCN1CCOCC1` (stereo not drawn) cannot be ordered by TGI: greater than 100 µM for the first, greater than 100 µM for the second.

`COc1cccc(C2=NC(C(C)C)CO2)c1` (stereo not drawn) and `COc1ccc(CC2NCCc3c2[nH]c2ccccc32)cc1` (stereo not drawn) cannot be ordered by TGI: greater than 100 µM for the first, greater than 100 µM for the second.

`CCOC(=O)C(=[N+]=[N-])[Si](C)(C)C` and `Cc1ccc(/C=C/C(=O)c2sc(-c3nc(C)c(C(=O)/C=C/c4ccc(C)cc4)s3)nc2C)cc1` cannot be ordered by TGI: greater than 100 µM for the first, greater than 100 µM for the second.

`CCCc1nc(NC#N)nc(C(=O)Nc2ccccc2)c1CC` and `O=C(Nc1nc(=S)c2c(ncn2CCOC(=O)c2ccccc2)[nH]1)c1ccccc1` cannot be ordered by TGI: greater than 100 µM for the first, greater than 100 µM for the second.

First: CCC[CH2][Sn]([Cl])([CH2]CCC)[CH2]CCC
Second: C1CN2CCN3CCN4CCN1[P+]243
The TGI of the first is lower: 0.236 µM for the first, greater than 100 µM for the second.

Molecule `CCC[CH2][Sn]([Cl])([CH2]CCC)[CH2]CCC` has a GI50 of 0.11 µM.

system: P388/ADR leukemia; assay: NCI tumour cell line growth inhibition, 48 h

Work on `COc1cc(NCc2ccc3nc(N)nc(N)c3c2C)cc(OC)c1OC` (tested in a mixture with another compound) yielded a TGI of 12.7 µM.

system: RXF-631 renal; assay: NCI tumour cell line growth inhibition, 48 h

`O=C1/C(=C/c2ccc3c(c2)OCO3)SC2C=Nc3ccccc3N12` (stereo not drawn) and `Cc1cc(Cl)ccc1NC(=O)C(=O)Cc1nc2ccccc2o1` cannot be ordered by TGI: greater than 100 µM for the first, greater than 100 µM for the second.

`CCOc1ccc(NC(=O)C(=O)CC(=O)c2c(C)n([O-])c3ccccc3[n+]2=O)cc1` and `CCOc1ccc(NC(=O)CC#N)cc1` cannot be ordered by TGI: greater than 100 µM for the first, greater than 100 µM for the second.

`OCC1OC(c2nc(C3=NCCCN3)cs2)C(O)C1O` (stereo not drawn) and `O=c1ccn([C@H]2CSC[C@@H](CO)C2)c(=O)[nH]1` cannot be ordered by TGI: greater than 100 µM for the first, greater than 100 µM for the second.

`CCC(C)COC(=O)c1ccc(N=Cc2ccc(C=Nc3ccc(C(=O)OCC(C)CC)cc3)cc2)cc1` (stereo not drawn) and `Cc1ccc(/C=C/C(=O)c2sc(-c3nc(C)c(C(=O)/C=C/c4ccc(C)cc4)s3)nc2C)cc1` cannot be ordered by TGI: greater than 100 µM for the first, greater than 100 µM for the second.

`CCCc1nc(NC#N)nc(C(=O)Nc2ccccc2)c1CC` and `O=C(CCc1n[nH]c(=S)o1)Nc1ccccc1C(F)(F)F` cannot be ordered by TGI: greater than 100 µM for the first, greater than 100 µM for the second.

First: COc1ccc(CC2NCCc3c2[nH]c2ccccc32)cc1 (stereo not drawn)
Second: O=C(/C=C/c1cccc2ccccc12)c1ccccc1Cl
The TGI of the first is 1.8-fold higher: 73.5 µM for the first, 41.9 µM for the second.

With `O=C1/C(=C/c2ccc(Cl)cc2)CCC1CCN1CCOCC1` (stereo not drawn) the TGI was greater than 100 µM.

system: MDA-N; assay: NCI tumour cell line growth inhibition, 48 h

`CN(C)CC[PH+](c1ccccc1)c1ccccc1.CN(C)CC[PH+](c1ccccc1)c1ccccc1.[Cl-].[Pd+2]` and `O=C1Nc2ccccc2/C1=N\[O-].O=C1Nc2ccccc2/C1=N\[O-].[Cu+2]` cannot be ordered by GI50: greater than 100 µM for the first, greater than 100 µM for the second.

In the case of `COc1cc(NCc2ccc3nc(N)nc(N)c3c2C)cc(OC)c1OC` (tested in a mixture with another compound), the GI50 is reported as 0.025 µM.

`CN(C)CC[PH+](c1ccccc1)c1ccccc1.CN(C)CC[PH+](c1ccccc1)c1ccccc1.[Cl-].[Pd+2]` and `Cc1c2c(C#N)nccc2c(C)c2c1c1ccccc1n2Cc1ccccc1` cannot be ordered by TGI: greater than 100 µM for the first, greater than 100 µM for the second.

First: COc1cc(NCc2ccc3nc(N)nc(N)c3c2C)cc(OC)c1OC (tested in a mixture with another compound)
Second: COc1cc2c(c(OC)c1OC)-c1ccc(SC)c(=O)cc1C(NC=O)CC2 (stereo not drawn)
The TGI of the first is higher: 44.9 µM for the first, less than 0.01 µM for the second.

`O=C(O)Cc1cc(Cl)ccc1O` and `CCOC(=O)Nc1ccc(C)c(NC(=O)OCC)c1` cannot be ordered by TGI: greater than 100 µM for the first, greater than 100 µM for the second.

`O=C(c1ccccc1Br)C(F)(F)F` and `Oc1cccnc1[Se]` cannot be ordered by TGI: greater than 100 µM for the first, greater than 100 µM for the second.

Compared with `CCCC(=O)Nc1cc2c3c(c1)CCCN3CCC2`, `CC(C)CC(NC(=O)OCc1ccccc1)C(=O)NC(Cc1ccccc1)C(=O)CCl` (stereo not drawn) (Cbz-Leu-Phe-CH2Cl; configuration not given here) is lower in TGI: greater than 10 µM for the first, 3.19 µM for the second.

Going from `CN(C)C(n1cc2c(c1)-c1ccc(Cl)cc1C(c1ccccc1F)=NC2)n1cc2c(c1)-c1ccc(Cl)cc1C(c1ccccc1F)=NC2` to `O=C1Nc2ccccc2/C1=N\[O-].O=C1Nc2ccccc2/C1=N\[O-].[Cu+2]`, the TGI rises from 52.7 µM to greater than 100 µM.

system: P388 leukemia; assay: NCI tumour cell line growth inhibition, 48 h

Molecule `COc1cc(NCc2ccc3nc(N)nc(N)c3c2C)cc(OC)c1OC` (tested in a mixture with another compound) has a TGI of 10 µM.
